# Laboratory results as given in patent US20090264401A1, “SUBSTITUTED PYRIMIDIN-5-CARBOXAMIDES 281” (AstraZeneca AB, priority 2008, published 2009).
# Molecular target: T1, human 11βHSD1 enzyme (Homo sapiens, UniProt P28845)
# T1 construct: baculovirus expressed N terminal 6-His tagged full length human 11βHSD1 enzyme; 6-His (N); made in house
# Experiment: 11βHSD1 cortisone to cortisol conversion, competitive HTRF assay
# Format: biochemical
# Details: human 11-βHSD; test concentration of 30 μM of compound
# Method in brief: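 Enzyme was baculovirus-expressed, N-terminal 6-His-tagged full-length human 11βHSD1, purified on a copper chelate column. Compounds were added in buffer containing 1% DMSO at 10-fold final concentration.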
# T1 sequence (P28845 whole entry): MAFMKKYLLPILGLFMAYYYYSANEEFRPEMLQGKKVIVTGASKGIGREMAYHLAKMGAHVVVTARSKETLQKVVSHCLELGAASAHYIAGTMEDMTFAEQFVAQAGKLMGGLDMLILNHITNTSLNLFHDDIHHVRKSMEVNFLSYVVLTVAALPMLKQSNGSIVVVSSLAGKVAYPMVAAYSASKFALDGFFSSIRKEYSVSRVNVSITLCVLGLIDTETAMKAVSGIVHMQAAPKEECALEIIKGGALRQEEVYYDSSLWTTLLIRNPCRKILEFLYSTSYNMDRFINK
row,inhibition at 30 µM [%],Compound
1,92.6,"O=C(N[C@H]1C2CC3CC1C[C@@](O)(C3)C2)c1cnc(NC2CC2)nc1C1CC(F)(F)C1 [Example 155, 2-(cyclopropylamino)-4-(3,3-difluorocyclobutyl)-N-[(2r,5s)-5-hydroxyadamantan-2-yl]pyrimidine-5-carboxamide]"
2,65.5,"C[C@@H]1CN(c2ncc(C(=O)N[C@H]3C4CC5CC3C[C@@](O)(C5)C4)c(C3CC(F)(F)C3)n2)C[C@H](C)O1 [Example 156, 4-(3,3-difluorocyclobutyl)-2-[(2S,6R)-2,6-dimethylmorpholin-4-yl]-N-[(2r,5s)-5-hydroxyadamantan-2-yl]pyrimidine-5-carboxamide]"
3,87.1,O=C(N[C@H]1C2CC3CC1C[C@@](O)(C3)C2)c1cnc(OC2CCC2)nc1C1CC(F)(F)C1 [Example 157]
4,96.5,"Cc1ncc(C(=O)N[C@H]2C3CC4CC2C[C@@](O)(C4)C3)c(C2CCCO2)n1 (stereo partly shown) [Example 158, N-[(2r,5s)-5-hydroxyadamantan-2-yl]-2-methyl-4-(oxolan-2-yl)pyrimidine-5-carboxamide]"
5,98.2,"CC(C)Nc1ncc(C(=O)N[C@H]2C3CC4CC2C[C@@](O)(C4)C3)c(C2CCCO2)n1 (stereo partly shown) [Example 159, N-[(2r,5s)-5-hydroxyadamantan-2-yl]-4-(oxolan-2-yl)-2-(propan-2-ylamino)pyrimidine-5-carboxamide]"
6,104,"O=C(N[C@H]1C2CC3CC1C[C@@](O)(C3)C2)c1cnc(NC2CC2)nc1C1CCCO1 (stereo partly shown) [Example 160, 2-(cyclopropylamino)-N-[(2r,5s)-5-hydroxyadamantan-2-yl]-4-(oxolan-2-yl)pyrimidine-5-carboxamide]"
7,105,"CNc1ncc(C(=O)N[C@H]2C3CC4CC2C[C@@](O)(C4)C3)c(C2CCCO2)n1 (stereo partly shown) [Example 161, N-[(2r,5s)-5-hydroxyadamantan-2-yl]-2-methylamino-4-(oxolan-2-yl)pyrimidine-5-carboxamide]"
8,97.7,"O=C(N[C@H]1C2CC3CC1C[C@@](O)(C3)C2)c1cnc(NC2CCC2)nc1C1CCCO1 (stereo partly shown) [Example 162, 2-(cyclobutylamino)-N-[(2r,5s)-5-hydroxyadamantan-2-yl]-4-(oxolan-2-yl)pyrimidine-5-carboxamide]"
9,98.9,"O=C(N[C@H]1C2CC3CC1C[C@@](O)(C3)C2)c1cnc(NC2COC2)nc1C1CCCO1 (stereo partly shown) [Example 164, N-[(2r,5s)-5-hydroxyadamantan-2-yl]-2-(oxetan-3-ylamino)-4-(oxolan-2-yl)pyrimidine-5-carboxamide]"
10,105,CC(C)Oc1ncc(C(=O)N[C@H]2C3CC4CC2C[C@@](O)(C4)C3)c(C2CCCO2)n1 (stereo partly shown) [Example 165]
11,102,"CSc1ncc(C(=O)N[C@H]2C3CC4CC2C[C@@](O)(C4)C3)c([C@H]2CCCO2)n1 [Example 166, N-[(2r,5s)-5-hydroxyadamantan-2-yl]-2-methylsulfanyl-4-[(2R)-oxolan-2-yl]pyrimidine-5-carboxamide]"

# Second part, the molecule before the results:
row,Compound,inhibition at 30 µM [%]
1,"CC(=O)N1CCN(c2ncc(C(=O)N[C@H]3C4CC5CC3C[C@@](O)(C5)C4)c(C3CCCC3)n2)CC1 [Example 126, 2-(4-acetylpiperazin-1-yl)-4-cyclopentyl-N-[(2r,5s)-5-hydroxyadamantan-2-yl]pyrimidine-5-carboxamide]",96.6
2,"CC(C)N1CCN(c2ncc(C(=O)N[C@H]3C4CC5CC3C[C@@](O)(C5)C4)c(C3CCCC3)n2)CC1=O [Example 127, 4-cyclopentyl-N-[(2r,5s)-5-hydroxyadamantan-2-yl]-2-(3-oxo-4-propan-2-ylpiperazin-1-yl)pyrimidine-5-carboxamide]",103
3,"CN1CCN(c2ncc(C(=O)N[C@H]3C4CC5CC3C[C@@](O)(C5)C4)c(C3CCCC3)n2)CC1=O [Example 128, 4-cyclopentyl-N-[(2r,5s)-5-hydroxyadamantan-2-yl]-2-(4-methyl-3-oxopiperazin-1-yl)pyrimidine-5-carboxamide]",99.1
4,"O=C(N[C@H]1C2CC3CC1C[C@](O)(C3)C2)c1cnc(NC2CCC2)nc1C1CCCC1 [Example 129, 4-cyclopentyl-2-(cyclobutylamino)-N-[(2r,5s)-5-hydroxyadamantan-2-yl]pyrimidine-5-carboxamide]",95.5
5,"O=C(N[C@H]1C2CC3CC1C[C@](O)(C3)C2)c1cnc(NC2CCCC2)nc1C1CCCC1 [Example 130, 4-cyclopentyl-2-(cyclopentylamino)-N-[(2r,5s)-5-hydroxyadamantan-2-yl]pyrimidine-5-carboxamide]",96.1
6,"O=C(N[C@H]1C2CC3CC1C[C@@](O)(C3)C2)c1cnc(N2CCC2)nc1C1CCCC1 [Example 131, 2-(azetidin-1-yl)-4-cyclopentyl-N-[(2r,5s)-5-hydroxyadamantan-2-yl]pyrimidine-5-carboxamide]",101
7,"CN(C)c1ncc(C(=O)N[C@H]2C3CC4CC2C[C@@](O)(C4)C3)c(C2CCCC2)n1 [Example 133, 4-cyclopentyl-2-dimethylamino-N-[(2r,5s)-5-hydroxyadamantan-2-yl]pyrimidine-5-carboxamide]",94
8,"C[C@@H]1CN(c2ncc(C(=O)N[C@H]3C4CC5CC3C[C@](O)(C5)C4)c(C3CCCC3)n2)C[C@H](C)N1 [Example 134, 4-cyclopentyl-2-[(3S,5R)-3,5-dimethylpiperazin-1-yl]-N-[(2r,5s)-5-hydroxyadamantan-2-yl]pyrimidine-5-carboxamide]",94.1
9,"Nc1ncc(C(=O)N[C@H]2C3CC4CC2C[C@@](O)(C4)C3)c(C2CCCC2)n1 [Example 135, 2-amino-4-cyclopentyl-N-[(2r,5s)-5-hydroxyadamantan-2-yl]pyrimidine-5-carboxamide]",100
10,"O=C(N[C@H]1C2CC3CC1C[C@@](O)(C3)C2)c1cnc(N2CCOCC2CO)nc1C1CCCC1 (stereo partly shown) [Example 141, 4-cyclopentyl-N-[(2r,5s)-5-hydroxyadamantan-2-yl]-2-[3-(hydroxymethyl)morpholin-4-yl]pyrimidine-5-carboxamide]",105
11,"O=C(N[C@H]1C2CC3CC1C[C@@](O)(C3)C2)c1cnc(N[C@@H]2CCOC2)nc1C1CCCC1 [Example 142, 4-cyclopentyl-N-[(2r,5s)-5-hydroxyadamantan-2-yl]-2-[[(3R)-oxolan-3-yl]amino]pyrimidine-5-carboxamide]",99.7
12,"CS(=O)(=O)N1CCN(c2ncc(C(=O)N[C@H]3C4CC5CC3C[C@@](O)(C5)C4)c(C3CCCC3)n2)CC1 [Example 143, 4-cyclopentyl-N-[(2r,5s)-5-hydroxyadamantan-2-yl]-2-(4-methylsulfonylpiperazin-1-yl)pyrimidine-5-carboxamide]",95
13,"O=C(N[C@H]1C2CC3CC1C[C@@](O)(C3)C2)c1cnc(N[C@H]2CCOC2)nc1C1CCCC1 [Example 144, 4-cyclopentyl-N-[(2r,5s)-5-hydroxyadamantan-2-yl]-2-[[(3S)-oxolan-3-yl]amino]pyrimidine-5-carboxamide]",98.8
14,"O=C(N[C@H]1C2CC3CC1C[C@@](O)(C3)C2)c1cnc(N2CCOC(CO)C2)nc1C1CCCC1 (stereo partly shown) [Example 145, 4-cyclopentyl-N-[(2r,Ss)-5-hydroxyadamantan-2-yl]-2-[2-(hydroxymethyl)morpholin-4-yl]pyrimidine-5-carboxamide]",92.9
15,"O=C(N[C@H]1C2CC3CC1C[C@@](O)(C3)C2)c1cnc(N2CC(F)(F)C2)nc1C1CCCC1 [Example 146, 4-cyclopentyl-2-(3,3-difluoroazetidin-1-yl)-N-[(2r,5s)-5-hydroxyadamantan-2-yl]pyrimidine-5-carboxamide]",93.4
16,"O=C(N[C@H]1C2CC3CC1C[C@@](O)(C3)C2)c1cnc(NCCN2CCOCC2)nc1C1CCCC1 [Example 147, 4-cyclopentyl-N-[(2r,5s)-5-hydroxytricyclo[3.3.1.13,7]dec-2-yl]-2-[(2-morpholin-4-ylethyl)amino]pyrimidine-5-carboxamide]",103
17,"C[C@@H]1CN(CCNc2ncc(C(=O)N[C@H]3C4CC5CC3C[C@@](O)(C5)C4)c(C3CCCC3)n2)C[C@H](C)O1 [Example 148, 4-cyclopentyl-2-({2-[(2R,6S)-2,6-dimethylmorpholin-4-yl]ethyl}amino)-N-[(2r,5s)-5-hydroxytricyclo[3.3.1.13,7]dec-2-yl]pyrimidine-5-carboxamide]",102
18,"O=C(N[C@H]1C2CC3CC1C[C@@](O)(C3)C2)c1cnc(C2CC2)nc1C1CCCC1 [Example 149, 4-Cyclopentyl-2-cyclopropyl-N-[(2r,5s)-5-hydroxyadamantan-2-yl]pyrimidine-5-carboxamide]",92
19,"CC(C)c1ncc(C(=O)N[C@H]2C3CC4CC2C[C@@](O)(C4)C3)c(C2CCCC2)n1 [Example 150, 4-Cyclopentyl-N-[(2r,5s)-5-hydroxyadamantan-2-yl]-2-propan-2-ylpyrimidine-5-carboxamide]",96
20,"NC1(c2ncc(C(=O)N[C@H]3C4CC5CC3C[C@@](O)(C5)C4)c(C3CCCC3)n2)CC1 [Example 151, 2-(1-Aminocyclopropyl)-4-cyclopentyl-N-[(2r,5s)-5-hydroxyadamantan-2-yl]pyrimidine-5-carboxamide]",101
21,"NCc1ncc(C(=O)N[C@H]2C3CC4CC2C[C@@](O)(C4)C3)c(C2CCCC2)n1 [Example 152, 2-(Aminomethyl)-4-cyclopentyl-N-[(2r,5s)-5-hydroxyadamantan-2-yl]pyrimidine-5-carboxamide]",97.8
22,"Cc1ncc(C(=O)N[C@H]2C3CC4CC2C[C@@](O)(C4)C3)c(C2CC(F)(F)C2)n1 [Example 153, 4-(3,3-difluorocyclobutyl)-N-[(2s,5r)-5-hydroxyadamantan-2-yl]-2-methylpyrimidine-5-carboxamide]",91.7
23,"CNc1ncc(C(=O)N[C@H]2C3CC4CC2C[C@@](O)(C4)C3)c(C2CC(F)(F)C2)n1 [Example 154, 4-(3,3-difluorocyclobutyl)-N-[(2r,5s)-5-hydroxyadamantan-2-yl]-2-methylaminopyrimidine-5-carboxamide]",88
